Laboratory results as given in patent publication US20090181898A1, “ABUSE-RESISTANT A[…]” (SHIRE LLC, priority 2002, published 2009).
“And” between values parts separate entries of the source, which are not always exact repeats. Identical values can stand only once. Like-named read-outs stand apart in the source and are kept apart here. Marks after values point to notes of the source that are not given here.

Columns and labels:
[1] = Oral PK study at a high dose (60 mg/kg), 8 h time course; settings: rat; for Mean plasma amphetamine concentration: high dose 60 mg/kg
[2] = Intranasal bioavailability of L-lysine-d-amphetamine vs amphetamine (ELISA); settings: rat, 3 mg/kg
[3] = Stability under concentrated conditions (concentrated HCl, 10 N NaOH, elevated temperature)
[4] = Kitchen tests: water, acid (vinegar), base (baking powder, baking soda), boiling; format: physicochemical; settings: for free amphetamine released: heated to boiling for 20-60 minutes
Method: “Kitchen tests” were performed in anticipation of attempts by illicit chemists to release free amphetamine from the amphetamine conjugate.

[5] = Stability under acidic conditions; settings: for d-amphetamine content released: reflux; for d-amphetamine released: acids; for Hydrolysis: reflux in concentrated HCl
[6] = Pharmacokinetics in male beagle dogs after oral or 30-min intravenous administration, 1 mg/kg (LC/MS/MS); format: in vivo; settings: for AUC(0-t): read-out: AUC0-t of L-lysine-d-amphetamine; for AUC(0-inf): read-out: AUCinf of L-lysine-d-amphetamine; for Cmax: read-out: Cmax of L-lysine-d-amphetamine; for MRT: read-out: MRT of L-lysine-d-amphetamine; for half-life: read-out: t1/2 of L-lysine-d-amphetamine (converted)
Description: This was a non-randomized, two-treatment crossover study. All animals were maintained on their normal diet and were fasted overnight prior to each dose administration. L-lysine-d-amphetamine dose was based on the body weight measured on the morning of each dosing day. The actual dose delivered was based on syringe weight before and after dosing. Serial blood samples were obtained from each animal by direct venipuncture of a jugular vein using vacutainer tubes containing sodium heparin as the anticoagulant. Derived plasma samples were stored frozen until shipment to Quest Pharmaceutical Services, Inc. (Newark, Del.). Pharmacokinetic analysis of the plasma assay results was conducted by Calvert. Animals were treated as follows:
Oral: The test article was administered to each animal via a single oral gavage. On Day 1, animals received the oral dose by gavage using an esophageal tube attached to a syringe. Dosing tubes were flushed with approximately 20 mL tap water to ensure the required dosing solution was delivered.
Intravenous: On Day 8, animals received L-lysine-d-amphetamine as a single 30-minute intravenous infusion into a cephalic vein.
Blood: Serial blood samples (2 mL) were collected using venipuncture tubes containing sodium heparin. Blood samples were taken at 0, 0.25, 0.5, 1, 2, 4, 8, 12, 24, 48, and 72 hours post-oral dosing. […] Collected blood samples were chilled immediately.
Microsoft Excel (Version 6, Microsoft Corp., Redmond, Wash.) was used for calculation of mean plasma concentration and graphing of the plasma concentration-time data. Pharmacokinetic analysis (non-compartmental) was performed using the WinNonlin® software program (Version 4.1, Pharsight, Inc. Mountain View, Calif.). The maximum concentration (Cmax) and the time to Cmax(Tmax) were observed values. The area under the plasma concentration-time curve (AUC) was determined using linear-log trapezoidal rules. The apparent terminal rate constant (λz) was derived using linear least-squares regression with visual inspection of the data to determine the appropriate number of points (minimum of 3 data points) for calculating λz. The AUC0-inf was calculated as the sum of AUC0-t and Cpred/λz, where Cpred was the predicted concentration at the time of the last quantifiable concentration. The plasma clearance (CL/F) was determined as the ratio of Dose/AUC0-inf. The mean residence time (MRT) was calculated as the ratio of AUMC0-inf/AUC0-inf where AUMC0-inf was the area under the first moment curve from the time zero to infinity. The volume of distribution at steady state (Vss) was estimated as CL*MRT. Half-life was calculated as ln 2/λz. The oral bioavailability (F) was calculated as the ratio of AUC0-inf following oral dosing to AUC0-inf following intravenous dosing. Descriptive statistics (mean and standard deviation) of the pharmacokinetic parameters were calculated using Microsoft Excel.
Blood samples were collected up to 24 and 72 hours after the intravenous and oral doses, respectively.

[7] = Serum and brain tissue levels following oral administration (LC/MS/MS); settings: rat, 5 mg/kg d-amphetamine base
[8] = Intranasal bioavailability of peptide amphetamine conjugates (HCl salts, ELISA); settings: rat, parenteral routes
[9] = target: T1, human recombinant dopamine transport binding sites (DAT) (Homo sapiens, UniProt Q01959); experiment: Radioligand binding assay, dopamine transporter (NovaScreen)
T1 construct: NovaScreen, Hanover, Md; (contract laboratory that ran the assay)

[10] = Oral dose-escalation abuse liability study (pharmacokinetics) in adults with stimulant abuse history
[11] = 10 N NaOH, elevated temperature
[12] = conc. HCl, about 90° C. for 1 hour, 0.4 mg/mL
[13] = 30 min iv, 1 mg/kg d-amphetamine base, individual dogs, 1 mg/kg
[14] = male, beagle, dog, plasma, iv, 1 mg/kg, 30 min iv, 1 mg/kg d-amphetamine base, individual dogs
[15] = male, beagle, dog, plasma, po, 1 mg/kg, oral, 1 mg/kg d-amphetamine base, individual dogs
[16] = oral, 1 mg/kg d-amphetamine base, individual dogs, 1 mg/kg

T1 sequence (Q01959 whole entry): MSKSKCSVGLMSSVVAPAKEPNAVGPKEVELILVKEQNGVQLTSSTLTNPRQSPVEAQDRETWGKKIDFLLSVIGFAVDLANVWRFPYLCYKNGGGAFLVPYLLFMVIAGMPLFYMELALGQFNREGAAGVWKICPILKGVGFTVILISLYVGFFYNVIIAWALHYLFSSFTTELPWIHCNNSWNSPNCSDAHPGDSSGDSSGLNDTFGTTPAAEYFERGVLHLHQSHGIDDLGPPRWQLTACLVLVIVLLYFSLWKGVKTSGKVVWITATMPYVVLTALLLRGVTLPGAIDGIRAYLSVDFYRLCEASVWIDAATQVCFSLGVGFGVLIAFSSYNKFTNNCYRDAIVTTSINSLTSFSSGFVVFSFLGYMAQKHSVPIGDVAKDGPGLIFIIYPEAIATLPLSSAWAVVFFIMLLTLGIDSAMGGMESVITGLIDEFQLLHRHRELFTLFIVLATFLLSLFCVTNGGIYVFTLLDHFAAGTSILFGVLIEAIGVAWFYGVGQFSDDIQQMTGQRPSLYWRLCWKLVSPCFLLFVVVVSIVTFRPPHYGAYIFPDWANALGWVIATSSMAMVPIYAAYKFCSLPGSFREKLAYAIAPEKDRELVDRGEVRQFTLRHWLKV

Question: With d-amphetamine as the molecule, how does the AUC of d-amphetamine ([1]; 60 mg/kg) read?
Answer: 13.42 µg·h/mL

Question: What about the “Animals that died or were sacrificed due to acute symptoms of toxicity” value ([1]; 60 mg/kg) of the same molecule?
Answer: 8 of 12

Question: And the Cmax of d-amphetamine ([1]; 60 mg/kg)?
Answer: 3.623 µg/mL

Question: And the “Mean Peak of d-amphetamine” value ([1]; 60 mg/kg)?
Answer: 2973 ng/mL

Question: And the “Mean Peak, Percent d-Amp” value ([1]; 60 mg/kg)?
Answer: 100%

Question: And the “Mean plasma amphetamine concentration” value ([1]; 0.5 h)?
Answer: 2643 ng/mL

Question: What about the “Mean plasma amphetamine concentration” value ([1]; 1 h) of the same molecule?
Answer: 2828 ng/mL

Question: What about the “Mean plasma amphetamine concentration” value ([1]; 3 h (d-amphetamine n = 2)) of the same molecule?
Answer: 2944* ng/ml

Question: What about the “Mean plasma amphetamine concentration” value ([1]; 5 h (d-amphetamine n = 2)) of the same molecule?
Answer: 153* ng/ml

Question: What about the “Mean plasma amphetamine concentration” value ([1]; 8 h (d-amphetamine n = 1)) of the same molecule?
Answer: 1309** ng/ml

Question: What about the “AUC (0-[…]) of d-amphetamine” value ([2]; hydrochloride salt study) of the same molecule?
Answer: 0.727 µg·h/mL

Question: What about the Cmax of d-amphetamine ([2]; hydrochloride salt study) of the same molecule?
Answer: 1,377 ng/ml

Question: What about the “AUC (0-1.0 h) of d-amphetamine” value ([2]; mesylate salt study) of the same molecule?
Answer: 0.573 µg·h/mL

Question: What about the Cmax of d-amphetamine ([2]; mesylate salt study) of the same molecule?
Answer: 1114 ng/mL

Question: Which results are given for `CC(Cc1ccccc1)NC(=O)C(N)CCCCN` [L-lysine-d-amphetamine, 2,6-diaminohexanoic acid-(1-methyl-2-phenylethyl)-amide]?
Answer: % AUC Lys-Amp (HPLC) [3, 11]: 99 % AUC; % AUC d-amphetamine (HPLC) [3, 11]: <1 % AUC; % AUC Lys-Amp (HPLC) [3, 12]: 96 % AUC; % AUC d-amphetamine (HPLC) [3, 12]: 4 % AUC; d-amphetamine released under concentrated conditions ([3]; concentrated HCl, about 90° C., 1 hour, HPLC): only a minimal amount; free amphetamine released ([4]; Baking Powder): 0%; free amphetamine released ([4]; Baking Soda): 0%; free amphetamine released ([4]; Tap Water): 0%; free amphetamine released ([4]; Vinegar): 0%; Release of free amphetamine in kitchen tests ([4]; water, vinegar, baking powder, baking soda, boiling 20-60 minutes): no detectable free amphetamine; d-amphetamine content released ([5]; 50% sulfuric acid): 59%; d-amphetamine released ([5]; 90° C.): only a limited amount; d-amphetamine released ([5]; ambient temperature): only a limited amount; d-amphetamine content released ([5]; concentrated hydrochloric acid): 85%; Stability ([5]; reflux in concentrated H2SO4, 2 hours): complete decomposition; Hydrolysis ([5]; 5 hours): 28%; Hydrolysis ([5]; 22 hours): 76%; AUC0-t of L-lysine-d-amphetamine [6, 13]: 1.0723 µg·h/mL and 0.9141 µg·h/mL; Cmax of L-lysine-d-amphetamine [6, 13]: 1.8264 µg/mL and 1.6542 µg/mL; MRT of L-lysine-d-amphetamine [6, 13]: 19.2 min and 18 min; Vss of L-lysine-d-amphetamine [6, 13]: 0.6034 L/kg and 0.656 L/kg; t1/2 of L-lysine-d-amphetamine [6, 13]: 63 min; Time by which L-lysine-d-amphetamine fell below the quantifiable limit (1 ng/mL) ([6]; IV infusion, post-dose): approximately 8 hours; AUC(0-t) [6, 14]: 0.898 µg·h/mL; AUC(0-inf) [6, 14]: 0.9 µg·h/mL; clearance ([6]; male, beagle, dog, plasma, iv, 1 mg/kg, 30 min iv, 1 mg/kg d-amphetamine base, individual dogs, read-out: CL of L-lysine-d-amphetamine (converted)): 2.22 L/h/kg; Cmax [6, 14]: 1.47 µg/mL; MRT [6, 14]: 21.6 min; Vd ([6]; male, beagle, dog, plasma, iv, 1 mg/kg, 30 min iv, 1 mg/kg d-amphetamine base, individual dogs, read-out: Vss of L-lysine-d-amphetamine): 0.807 L/kg; half-life [6, 14]: 43.2 min; AUC(0-t) ([6]; male, beagle, dog, plasma, iv, 1 mg/kg, 30 min iv, 1 mg/kg d-amphetamine base, mean of 3 dogs): 0.962 µg·h/mL; clearance ([6]; male, beagle, dog, plasma, iv, 1 mg/kg, 30 min iv, 1 mg/kg d-amphetamine base, mean of 3 dogs, read-out: CL of L-lysine-d-amphetamine (converted)): 2.09 L/h/kg; clearance ([6]; male, beagle, dog, plasma, iv, 1 mg/kg, IV 30-min infusion, 1 mg/kg, read-out: Mean clearance of L-lysine-d-amphetamine): 2.09 L/h/kg; AUC(0-t) [6, 15]: 0.368 µg·h/mL; AUC(0-inf) [6, 15]: 0.369 µg·h/mL; CL/F ([6]; male, beagle, dog, plasma, po, 1 mg/kg, oral, 1 mg/kg d-amphetamine base, individual dogs, read-out: CL/F of L-lysine-d-amphetamine (converted)): 5.42 L/h/kg; Cmax [6, 15]: 0.407 µg/mL; bioavailability ([6]; male, beagle, dog, plasma, po, 1 mg/kg, oral, 1 mg/kg d-amphetamine base, individual dogs, read-out: F (bioavailability) of L-lysine-d-amphetamine): 34.3%; MRT [6, 15]: 44.4 min; half-life [6, 15]: 28.8 min; AUC(0-t) ([6]; male, beagle, dog, plasma, po, 1 mg/kg, oral, 1 mg/kg d-amphetamine base, mean of 3 dogs): 0.318 µg·h/mL; AUC0-t of L-lysine-d-amphetamine [6, 16]: 0.3108 µg·h/mL and 0.2753 µg·h/mL; Cmax of L-lysine-d-amphetamine [6, 16]: 0.2274 µg/mL and 0.3502 µg/mL; F (bioavailability) of L-lysine-d-amphetamine [6, 16]: 34.0% and 30.8%; MRT of L-lysine-d-amphetamine [6, 16]: 61.8 min and 40.8 min; t1/2 of L-lysine-d-amphetamine [6, 16]: 27 min and 14.4 min; Intact conjugate in brain tissue [7]: not detected; Intact conjugate in serum [7]: present in appreciable amounts; Bioavailability by parenteral routes of administration [8]: decreased parenteral bioavailability; inhibition at 10 µM ([9]; 10^−5 mol/L): -0.71%; inhibition at 0.1 µM ([9]; 10^−7 mol/L): 11.5%; inhibition at 0.001 µM ([9]; 10^−9 mol/L): -10.5%; Specific binding to dopamine transport binding sites ([9]; 10^−9 to 10^−5 M): did not bind; Activity ([9]; DA Transporter, radioligand [3H]-WIN35428, 10^−9 to 10^−5 M): No (No activity is defined as producing between −20% and 20% inhibition of radioligand binding (Novascreen).); Adverse reactions ([10]; adults with stimulant abuse, oral, 30-150 mg): mild in severity; half-life ([10]; human, in vivo, po): 26.4 to 45.6 min
